Reference: patent publication US10201586B2 (dated 2019)
Values belong to the molecule of their own block, whether it stands above or below them. *1 amine or outer side, *2 acyl side, *3 side chain or, on linkers, in order; H or OH if unused. Where a SMILES comes first, the peptide text is derived from it. Bridges are numbered along the chain shown (N, C = ends). [ ]: non-standard residue; d: D form. The star is where a group is joined. ξ: configuration not given here. Succinimide(1-Et,3-yl) = CCN1C(=O)CC(*)C1=O; Bta = N[C@@H](Cc1csc2ccccc12)C(=O)O; Cysteamide = C(CS[*:3])N[*:1]; Tle = CC(C)(C)[C@H](N)C(=O)O; β3hL = CC(C)C[C@H](N)CC(=O)O; β3hK = NCCCC[C@H](N)CC(=O)O; hCys = N[C@@H](CCS)C(=O)O; ξβ3hV = CC(C)C(N)CC(=O)O; Aib = CC(C)(N)C(=O)O

Tests used:
TFPI [1] = biological target: T1, TFPI (Homo sapiens, UniProt P10646); test: IC50 Mean (nM]
Target sequence in this assay (P10646 29-304 limits assumed): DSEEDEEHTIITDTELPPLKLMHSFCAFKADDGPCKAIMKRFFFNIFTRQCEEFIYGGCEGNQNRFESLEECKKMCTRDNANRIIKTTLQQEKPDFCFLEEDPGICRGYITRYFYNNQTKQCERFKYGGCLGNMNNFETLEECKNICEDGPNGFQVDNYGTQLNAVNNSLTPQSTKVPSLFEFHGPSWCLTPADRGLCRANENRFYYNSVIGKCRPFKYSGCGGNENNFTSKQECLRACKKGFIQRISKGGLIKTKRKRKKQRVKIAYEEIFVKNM

[2] = biological target: Tissue Factor Pathway Inhibitor (TFPI) (Homo sapiens, UniProt P10646); test: IC50 ELISA | IC50 [nM]
TFPI [3] = biological target: T1, TFPI; test: Extrinsic Tenase Inhibition assay | % Inhibition @ 2.5µM
TFPI [4] = biological target: T1, TFPI; test: % Inhibition @ 2.5µM
[5] = plasma stability in human plasma; format: in vitro ADME; conditions: for remaining at 24 h: 24 hour incubation in human plasma, quantitative ELISA
TFPI [6] = biological target: T1, TFPI; test: IC50 [nm]
Target sequence in this assay (P10646 29-304 limits assumed): as above

Chain of Tissue Factor Pathway Inhibitor (TFPI) (P10646 29-304 limits assumed): as above

Molecule: CC(=O)N[C@@H](Cc1ccccc1)C(=O)N[C@@H](CCC(N)=O)C(=O)N[C@@H](CO)C(=O)N[C@@H](CCCCN)C(=O)NCC(=O)N[C@@H](CC(N)=O)C(=O)N[C@H](C(=O)N[C@@H](Cc1ccccc1)C(=O)N[C@H](C(=O)N[C@@H](Cc1ccccc1)C(=O)NCC(=O)N[C@@H](Cc1ccc(O)cc1)C(=O)N[C@@H](Cc1ccccc1)C(=O)N[C@@H](CCC(=O)O)C(=O)N[C@@H](CCCNC(=N)N)C(=O)N[C@@H](CC(C)C)C(=O)N[C@@H](CCCNC(=N)N)C(=O)N[C@@H](C)C(=O)N[C@@H](CCCCN)CC(=O)N[C@@H](CC(C)C)C(N)=O)C(C)C)C(C)C [JBT0533 | 424] (Ac-FQSKGNVFVFGYFERLRA[β3hK]L-NH2)
IC50 (TFPI [1]): 756 nM

Molecule: CC(=O)N[C@@H](Cc1ccccc1)C(=O)N[C@@H](CCC(N)=O)C(=O)N[C@@H](CO)C(=O)N[C@@H](CCCCN)C(=O)NCC(=O)N[C@@H](CC(N)=O)C(=O)N[C@H](C(=O)N[C@@H](Cc1ccccc1)C(=O)N[C@H](C(=O)N[C@@H](Cc1ccccc1)C(=O)NCC(=O)N[C@@H](Cc1ccc(O)cc1)C(=O)N[C@@H](Cc1ccccc1)C(=O)N[C@@H](CCC(=O)O)C(=O)N[C@@H](CCCNC(=N)N)C(=O)N[C@@H](CC(C)C)C(=O)N[C@@H](CCCNC(=N)N)C(=O)N[C@@H](C)C(=O)N[C@@H](CCCCN)C(=O)N[C@H](CC(N)=O)CC(C)C)C(C)C)C(C)C [JBT0534 | 204] (Ac-FQSKGNVFVFGYFERLRAK[β3hL]-NH2)
IC50 (TFPI [1]): 84 nM

Molecule: CC(=O)N[C@@H](Cc1ccccc1)C(=O)N[C@@H](CCC(N)=O)C(=O)N[C@@H](CO)C(=O)N[C@@H](CCCCN)C(=O)N1CCC[C@@H]1C(=O)N[C@@H](CC(N)=O)C(=O)N[C@H](C(=O)N[C@@H](Cc1c[nH]cn1)C(=O)N[C@H](C(=O)N1CCC[C@H]1C(=O)N[C@@H]1CSSCC[C@@H](C(=O)N[C@@H](CCCNC(=N)N)C(=O)N[C@@H](CC(C)C)C(=O)NC(C)(C)C(=O)N[C@@H](C)C(=O)N[C@@H](CCCCN)C(=O)N[C@@H](CC(C)C)C(N)=O)NC(=O)[C@H](Cc2csc3ccccc23)NC(=O)[C@H](Cc2ccc(O)cc2)NC1=O)C(C)C)C(C)C [JBT2518 | 4233, Ac-FQSKpNVHVPcY-Bta--Hcy-RL-Aib-AKL-NH2] (Ac-FQSK[dP]NVHVP[dC]Y[Bta][hCys]RL[Aib]AKL-NH2; disulfide 11-14)
IC50 [2]: 10.8 nM

Molecule: CC(=O)N[C@@H](Cc1ccccc1)C(=O)N[C@@H](CCC(N)=O)C(=O)N[C@@H](CO)C(=O)N[C@@H](CCCCN)C(=O)NCC(=O)N[C@@H](CC(N)=O)C(=O)N[C@H](C(=O)N[C@@H](Cc1ccccc1)C(=O)NC(CC(=O)N[C@@H](Cc1ccccc1)C(=O)NCC(=O)N[C@@H](Cc1ccc(O)cc1)C(=O)N[C@@H](Cc1ccccc1)C(=O)N[C@@H](CCC(=O)O)C(=O)N[C@@H](CCCNC(=N)N)C(=O)N[C@@H](CC(C)C)C(=O)N[C@@H](CCCNC(=N)N)C(=O)N[C@@H](C)C(=O)N[C@@H](CCCCN)C(=O)N[C@@H](CC(C)C)C(N)=O)C(C)C)C(C)C (stereo partly drawn) [JBT0523 | 757] (Ac-FQSKGNVF[ξβ3hV]FGYFERLRAKL-NH2)
IC50 (TFPI [1]): > 5000 nM

Molecule: CCN1C(=O)CC(SC[C@H](NC(=O)[C@H]2CCCN2C(=O)[C@H](CCCCN)NC(=O)[C@H](CO)NC(=O)[C@H](CCC(N)=O)NC(=O)[C@H](Cc2ccccc2)NC(C)=O)C(=O)N[C@H](C(=O)N[C@@H](Cc2c[nH]cn2)C(=O)N[C@H](C(=O)N[C@@H](CC(=O)O)C(=O)N[C@H](C)C(=O)N[C@@H](Cc2ccc(O)cc2)C(=O)N[C@@H](Cc2csc3ccccc23)C(=O)N[C@@H](CCC(=O)O)C(=O)N[C@@H](CCCNC(=N)N)C(=O)N[C@@H](CC(C)C)C(=O)NC(C)(C)C(=O)N[C@@H](C)C(=O)N[C@@H](CCCCN)C(=O)N[C@@H](CC(C)C)C(N)=O)C(C)(C)C)C(C)C)C1=O (stereo partly drawn) [JBT2502 | 4217, Ac-FQSKp-C(NEM)-VH-Tle-DaY-Bta-ERL-Aib-AKL-NH2] (Ac-FQSK[dP]C(Succinimide(1-Et,3-yl))VH[Tle]D[dA]Y[Bta]ERL[Aib]AKL-NH2)
IC50 [2]: 4.1 nM

Molecule: CSCC[C@@H]1NC(=O)CNC(=O)[C@@H](NC(=O)[C@H](Cc2ccccc2)NC(=O)[C@H](Cc2c[nH]c3ccccc23)NC(=O)[C@H](CCCCN)NC(=O)[C@H](Cc2ccc(O)cc2)NC(=O)[C@H](CCCNC(=N)N)NC(=O)[C@H](CO)NC(C)=O)CSSC[C@@H](C(=O)N[C@H](C(=O)N[C@@H](Cc2c[nH]c3ccccc23)C(=O)N[C@H](C(=O)N[C@@H](CCCCN)C(=O)N[C@@H](Cc2ccccc2)C(N)=O)C(C)C)C(C)C)NC(=O)[C@H](CO)NC(=O)[C@H](CCSC)NC(=O)[C@H]([C@@H](C)O)NC(=O)CNC(=O)[C@H](CCCCN)NC(=O)[C@H](CCSC)NC(=O)[C@H](CC(=O)O)NC(=O)[C@H](C)NC1=O [JBT0446 | 1079] (Ac-SRYKWFCGMADMKGTMSCVWVKF-NH2; disulfide 7-18)
IC50 (TFPI [6]): 152 nM

Molecule: CC(=O)N[C@@H](Cc1ccccc1)C(=O)N[C@@H](CCC(N)=O)C(=O)N[C@@H](CO)C(=O)N[C@@H](CCCCN)C(=O)N1CCC[C@@H]1C(=O)N[C@@H](CC(N)=O)C(=O)N[C@H](C(=O)N[C@@H](Cc1c[nH]cn1)C(=O)N[C@H](C(=O)N1CCC[C@H]1C(=O)N[C@H](C)C(=O)N[C@@H](Cc1ccc(O)cc1)C(=O)N[C@@H](Cc1csc2ccccc12)C(=O)N[C@@H](CCC(=O)O)C(=O)N[C@@H](CCCNC(=N)N)C(=O)N[C@@H](CC(C)C)C(=O)NC(C)(C)C(=O)N[C@@H]1CSSCCNC(=O)[C@H](CC(C)C)NC(=O)[C@H](CCCCN)NC1=O)C(C)C)C(C)C [JBT2517 | 4232, Ac-FQSKpNVHVPaY-Bta-ERL-Aib-cKL-Cea-] (Ac-FQSK[dP]NVHVP[dA]Y[Bta]ERL[Aib][dC]KL-Cysteamide; disulfide 18-C)
IC50 [2]: 269 nM

Molecule: CC(=O)N[C@@H](Cc1ccccc1)C(=O)N[C@@H](CCC(N)=O)C(=O)N[C@@H](CO)C(=O)N[C@@H](CCCCN)C(=O)NCC(=O)N[C@@H](CC(N)=O)C(=O)NC(CC(=O)N[C@@H](Cc1ccccc1)C(=O)N[C@H](C(=O)N[C@@H](Cc1ccccc1)C(=O)NCC(=O)N[C@@H](Cc1ccc(O)cc1)C(=O)N[C@@H](Cc1ccccc1)C(=O)N[C@@H](CCC(=O)O)C(=O)N[C@@H](CCCNC(=N)N)C(=O)N[C@@H](CC(C)C)C(=O)N[C@@H](CCCNC(=N)N)C(=O)N[C@@H](C)C(=O)N[C@@H](CCCCN)C(=O)N[C@@H](CC(C)C)C(N)=O)C(C)C)C(C)C (stereo partly drawn) [JBT0521 | 756] (Ac-FQSKGN[ξβ3hV]FVFGYFERLRAKL-NH2)
IC50 (TFPI [1]): > 5000 nM

More lines, now with the values ahead:

Extrinsic Tenase Inhibition assay | % Inhibition @ […] (TFPI [3]): 1%
% Inhibition @ […] (TFPI [4]): 0%
Molecule: Ac-SGYASFPLAVQLHVSKASKEMALARLYYKTS-NH2 (SEQ ID NO: 2137) [JBT0676]

remaining at 24 h [5]: 76%
Molecule: CC(=O)N[C@@H](Cc1ccccc1)C(=O)N[C@@H](CCC(N)=O)C(=O)N[C@@H](CO)C(=O)N[C@@H](CCCCN)C(=O)N1CCC[C@@H]1C(=O)N[C@@H](CC(N)=O)C(=O)N[C@H](C(=O)N[C@@H](Cc1cnc[nH]1)C(=O)N[C@H](C(=O)N1CCC[C@H]1C(=O)NCC(=O)N[C@@H](Cc1ccc(O)cc1)C(=O)N[C@@H](Cc1ccccc1)C(=O)N[C@@H](CCC(=O)O)C(=O)N[C@@H](CCCNC(=N)N)C(=O)N[C@@H](CC(C)C)C(=O)NC(C)(C)C(=O)N[C@@H](C)C(=O)N[C@@H](CCCCN)C(=O)N[C@@H](CC(C)C)C(N)=O)C(C)C)C(C)C [JBT2432]

remaining at 24 h [5]: 82%
Molecule: CC(=O)N[C@@H](Cc1ccccc1)C(=O)N[C@@H](CCC(N)=O)C(=O)N[C@@H](CO)C(=O)N[C@@H](CCCCN)C(=O)N1CCC[C@@H]1C(=O)N[C@@H](CC(N)=O)C(=O)N[C@H](C(=O)N[C@@H](Cc1cnc[nH]1)C(=O)N[C@H](C(=O)N[C@@H](CC(=O)O)C(=O)NCC(=O)N[C@@H](Cc1ccc(O)cc1)C(=O)N[C@@H](Cc1ccccc1)C(=O)N[C@@H](CCC(=O)O)C(=O)N[C@@H](CCCNC(=N)N)C(=O)N[C@@H](CC(C)C)C(=O)NC(C)(C)C(=O)N[C@@H](C)C(=O)N[C@@H](CCCCN)C(=O)N[C@@H](CC(C)C)C(N)=O)C(C)(C)C)C(C)C [JBT2431] (Ac-FQSK[dP]NVH[Tle]DGYFERL[Aib]AKL-NH2)

Extrinsic Tenase Inhibition assay | % Inhibition @ […] (TFPI [3]): 2%
% Inhibition @ […] (TFPI [4]): 4%
Molecule: Ac-SGYASFPLAVQLHVSKRAKEMALARLYYKTS-NH2 (SEQ ID NO: 2009) [JBT0677]

Extrinsic Tenase Inhibition assay | % Inhibition @ […] (TFPI [3]): 1%
% Inhibition @ […] (TFPI [4]): 4%
Molecule: Ac-SGYASFPLAVQLHVSKRSKEMALARAYYKTS-NH2 (SEQ ID NO: 2021) [JBT0685]

Extrinsic Tenase Inhibition assay | % Inhibition @ […] (TFPI [3]): 1%
% Inhibition @ […] (TFPI [4]): 3%
Molecule: Ac-SGYASFPLAVQLHVSKRSKEMALARLAYKTS-NH2 (SEQ ID NO: 2140) [JBT0686]

Extrinsic Tenase Inhibition assay | % Inhibition @ […] (TFPI [3]): 5%
% Inhibition @ […] (TFPI [4]): 10%
Molecule: Ac-SGYASFPLAVQLHVAKRSKEMALARLYYKTS-NH2 (SEQ ID NO: 2008) [JBT0674]

Plasma Stability (half life in minutes) human ([5]; human plasma): >120 min
Molecule: CC(=O)N[C@@H](Cc1ccccc1)C(=O)N[C@@H](CCC(N)=O)C(=O)N[C@@H](CO)C(=O)N[C@@H](CCCCN)C(=O)N(C)CC(=O)N[C@@H](CC(N)=O)C(=O)N[C@H](C(=O)N[C@@H](Cc1ccccc1)C(=O)N[C@H](C(=O)N[C@@H](CC(=O)O)C(=O)NCC(=O)N[C@@H](Cc1ccc(O)cc1)C(=O)N[C@@H](Cc1ccccc1)C(=O)N[C@@H](CCC(=O)O)C(=O)N[C@@H](CCCNC(=N)N)C(=O)N[C@@H](CC(C)C)C(=O)NC(C)(C)C(=O)N[C@@H](C)C(=O)N[C@@H](CCCCN)C(=O)N[C@@H](CC(C)C)C(N)=O)C(C)C)C(C)C [JBT1584]
